In the kinase profiling compilation of Christmann-Franck et al. (2016) one finds inhibition and residual activity data, which are given here for two compounds.

Test [1] deals with MET (human), P08581 [M1250T]. Nature of the test: Caliper, Mobility shift assay off-chip.
Test [2] concerns AKT1 (human), P31749 [S478G]. Nature of the test: radiometric filter-binding kinase assay, Kinaseprofiler. The note with it: compound 1.0 µM; ATP 155 µM.
The next test concerns the target CSNK1D (human) (UniProt P48730). The description is as above. The settings on record: compound 1.0 µM; ATP 70 µM.
Another test concerns the target DAPK2 (human) (UniProt Q9UIK4). The test is described as above. The note with it: compound 1.0 µM; ATP 10 µM.
Another test has as its target EPHB4 (human) (UniProt P54760). Described as above. The settings on record: compound 1.0 µM; ATP 10 µM.
For another test, the target named is FGFR1 (human) (UniProt P11362). The test is described as above. The settings on record: compound 1.0 µM; ATP 200 µM.
In another test the target is HCK (human) (UniProt P08631). Described as above. The settings on record: compound 1.0 µM; ATP 70 µM.
For test [3], the system named is IRAK4 (human), Q9NWZ3 [A81V]. The description is as above. The note with it: compound 1.0 µM; ATP 200 µM.
A further test addresses ITK (human) (UniProt Q08881). The test is described as above. The settings on record: compound 1.0 µM; ATP 200 µM.
The target of the next test is MAPK8 (human) (UniProt P45983). The description is as above. The note with it: compound 1.0 µM; ATP 45 µM.
Test [4] has as its system MAPKAPK2 (human), P49137 [A399G]. The test is described as above. The settings on record: compound 1.0 µM; ATP 90 µM.
In the next test the target is NLK (human) (UniProt Q9UBE8). The test is described as above. The settings on record: compound 1.0 µM; ATP 200 µM.
Test [5] relates to PRKCH (human), P24723 [V108L/G109R/L392Q]. The description is as above. The note with it: compound 1.0 µM; ATP 45 µM.
The next test deals with PTK2B (human) (UniProt Q14289). The description is as above. The note with it: compound 1.0 µM; ATP 90 µM.
The next test deals with RIPK2 (human) (UniProt O43353). The description is as above. The note with it: compound 1.0 µM; ATP 120 µM.
Another test has as its target RPS6KA3 KD1 KD2 (human) (UniProt P51812). The description is as above. The note with it: compound 1.0 µM; ATP 10 µM.
In test [6] the test system is RPS6KB1 (human), P23443 [T412E]. The description is as above. The note with it: compound 1.0 µM; ATP 15 µM.
For a further test, the target named is STK17A (human) (UniProt Q9UEE5). Described as above. The settings on record: compound 1.0 µM; ATP 10 µM.
The next test deals with STK3 (human) (UniProt Q13188). The test is described as above. The note with it: compound 1.0 µM; ATP 155 µM.
The next test deals with ZAP70 (human) (UniProt P43403). The test is described as above. The settings on record: compound 1.0 µM; ATP 15 µM.

The structures appear in SMILES notation.

A word on the inhibition: it is the drop in the measured response relative to a control, in per cent. In the case of `O=C(CCc1ccc2ccc3ncc(C4CCNCC4)cc3c(=O)c2c1)NCc1ccccn1`, the inhibition in test [1] (compound 0.1 µM) is 87%; in test [1] (compound 1.0 µM), 98.4%.

Usually residual activity stands for the signal under treatment as a percentage of the control signal. `CN(C)S(=O)(=O)Nc1ccc2ccc3ncc(-c4cnn(C)c4)cc3c(=O)c2c1`: the residual activity in test [2] amounted to 109%; on CSNK1D (human), 98%; on DAPK2 (human), 91%; at EPHB4 (human), 103%; at FGFR1 (human), 5%; on HCK (human) it was 33%. Also, the residual activity in test [3] came out at 14%; on ITK (human), 18%; at MAPK8 (human), 98%; in [4] it was 104%; on NLK (human) it was 103%; in test [5] it was 126%. Further, the residual activity at PTK2B (human) is 101%; at RIPK2 (human) it was 35%; at RPS6KA3 KD1 KD2 (human), 76%; in [6], 81%; at STK17A (human) it was 0%; on STK3 (human) it was 90%. Besides, the residual activity on ZAP70 (human) was found to be 127%.
